How the values were obtained:
C57BL/6 mice [1] = test: Tail-suspension test in WT mice after 35 days (Study 3); assay type: in vivo, mouse; settings: daily for 35 days, prednisolone 15 mg/kg or vamorolone 45 mg/kg
Experimental: In the CNS of these miceFkbp5 mRNA and Ddrd4 mRNA levels were increased (Supplementary Fig. S3d and e). Expression of FKBP5 is reported to be GRE regulated, and Drd4 is a reported biomarker of depression.
• 1) Force-swim test: Animals were single housed and acclimated in the behavior room for 30 min prior to test. A clean 1-L beaker was filled with 700 to 800 ml of 23°C water. Each mouse was placed into the water for 6 min. The total immobility time was recorded. After the test, the animals were dried and placed in a cage on a heating pad for about 10 min before returning to the home cages. • 2) Tail-suspension test: Isolated mice were suspended 50 cm above the floor by surgical tape placed approximately 1 cm from the tip of the tail for 6 min. The total immobility time of mice was measured. Mice were considered immobile only when they hung passively and completely motionless.

[2] = Published PK data in patients; settings: in vivo, oral, human, 0.75 mg/kg, extrapolated assuming linear increase from the lower dose
From the text: ^a Conklin […] JM, Hoffman EP, Jusko WJ, Mavroudis PD, Schwartz BD, […] LJ, Smith EC, Mah JK, Guglieri M, Nevo Y, Kuntz N, McDonald CM, Tulinius M, Ryan MM, Webster R, Castro D, Finkel RS, Smith AL, Morgenroth […], Jaros M, Shale […] JM, […], Ward […], Cornish MR, Clemens PR. […] Epub 2018 Sep 13. PMID: 30219580; PMCID: PMC6218284. […] Bashar T, Apu […]. […] Dose Response. 2018 Jul 25;16(3):1559325818783932. doi: 10.1177/1559325818783932. PMID: 30083083; PMCID: PMC6073839. ^c Assumed linear increase in AUC and Cmax from 0.25 to 0.75 mg/kg. This may be an overestimate. However, there is support for linearity in Al-Habet S, Rogers HJ. Pharmacokinetics of intravenous and oral prednisolone. Br J Clin Pharmacol. 1980 Nov;10(5):503-8. doi: 10.1111/j.1365-2125.1980.tb01796.x. PMID: 7437263; PMCID: PMC1430141. ^d https://www.accessdata.fda.gov/drugsatfda_docs/nda/2017/208684,208685[…]

[3] = cited from earlier work
[4] = Pharmacokinetics and biodistribution in C57BL/10 mice
C57BL/6 mice [5] = test: RT-qPCR of brain mRNA in WT mice (Study 3); settings: daily for 35 days, prednisolone 15 mg/kg or vamorolone 45 mg/kg
Experimental: RNA concentration was measured by using Cytation 5 (BioTek).

[6] = Pharmacokinetics and brain/plasma biodistribution in WT DBA/2 J mice
Experimental: (§3) The brain-to-plasma ratio was then calculated using the area under the curve (AUC) for brain exposure and the AUC for plasma exposure.

human P-gp (MDR1) = test: MDR1-MDCK permeability / P-gp efflux assay; settings: for Differences between ratios: MDR1-MDCK minus MDCK efflux ratio; for brain penetration classification: 1 and 10 μM, from Papp (A-to-B) and efflux ratio
Experimental: (§1) To measure transport by P-gp, Madin-Darby canine kidney (MDCK) cells that had been transfected with the human P-gp (MDR1) gene were plated in a Transwell plate and cultured until polarized. MDCK cells that are not transfected with human P-gp were used as a control. Compounds were added to either the apical or the basolateral side of the cells, and transport across the membrane was measured.
(§2) Testing for permeability and MDR1 substrate assessment was done in MDCK cells transfected to overexpress human MDR1 gene that encodes efflux transporter protein (P-gp). […] Briefly, cells were maintained in Dulbecco’s modified Eagle medium (DMEM) with 10% fetal bovine serum and 1% penicillin/streptomycin in a humidified incubator at 37°C with 5% CO2. The study was performed by Absorption Systems (now Pharmaron; Exton, PA). The MDR1-MDCK and MDCK control cell lines were seeded into 12-well plates for 7 days. Integrity of monolayer tight junctions was monitored preincubation by transepithelial electrical resistance (TEER) measurement. […] The samples were withdrawn at t = 0 and 60 min from the receiver and donor compartments. Compound levels were measured by LC/MS–MS. Additionally, post-assay, cell monolayer integrity was checked with Lucifer Yellow permeability measurement. Transport assay low- and high-permeability control compounds were run in parallel for assay validation. Papp values were calculated considering compound concentrations across the monolayer and cell surface area. Efflux ratios were calculated based on Papp B > A over Papp A > B. The difference between the MDR1-MDCK and the MDCK cell efflux ratios was also calculated. […] Compounds were classified by Absorption Systems/Pharmaron as follows: […]

[7] = MDCK control cell permeability (not transfected with human P-gp); settings: dog, pH 7.4
Experimental: as §1, §2

MDCK cells = test: as above; settings: 1 μM
Experimental: as §1, §2

[8] = DBA/2 J, mouse, in vivo
Experimental: as §3

B10-mdx mice = test: Four-limb grip strength (Study 2); assay type: in vivo, mouse; settings: 4 weeks of treatment, not complete, not dose dependent
Experimental: After 4 weeks of treatment, muscle strength was evaluated using a grip strength meter.
Study 2: The goal of the second study was to evaluate corticosteroid side effects and efficacy in a longer study (4 months). After 28 days of dosing, mice were tested for depression-like behavior using a measure of corticosteroid-induced depression (FST followed by TST). Muscle function was tested via grip strength. Tests for depression and for grip-strength were done in a blinded manner. After 4 months, mice were euthanized, and tissues were collected. Bone from whole left leg was collected for micro-CT analysis. The number of animals per group was as follows: WT, n = 16; B10-mdx, n = 15; corticosteroid-treated groups, n = 8–10.
A four-limb grip strength meter from Bioseb was used to determine the maximal peak force (g) developed by the mouse when the examiner tried to pull it out of a specially designed grid for mice (Bioseb, BIO-GS3 & BIO-GRIPGS). The examiner was blinded, and a total of 5 measurements were applied to each mouse, 1–2 min between measurements. The average of the 5 values was used for subsequent calculations.

[9] = 30 mg/kg oral gavage, DBA/2 J mice

depression-like behavior as measured by the TST (C57BL/6 mice [1]) | Differences between ratios (human P-gp (MDR1); 1 μM) | Apical to Basolateral MDR1-MDCK (human P-gp (MDR1); 10 μM) | Differences between ratios (human P-gp (MDR1); 10 μM) | brain penetration classification (human P-gp (MDR1)) | Papp A→B at 60 min, 1 μM (human P-gp (MDR1); dog, MDCK-MDR1, pH 7.4) | Papp B→A at 60 min, 10 μM (human P-gp (MDR1); dog, MDCK-MDR1, pH 7.4) | Papp A→B at 60 min, 10 μM [7] | Papp B→A at 60 min, 1 μM [7] | Papp B→A at 60 min, 10 μM [7] | efflux ratio at 60 min, 1 μM [7] | efflux ratio at 60 min, 10 μM [7] | SMILES | further results
induced depression-like behavior | – | – | – | – | – | – | – | – | – | – | – | C[C@]12C=CC(=O)C=C1CC[C@@H]1[C@@H]2[C@@H](O)C[C@@]2(C)[C@H]1CC[C@]2(O)C(=O)CO [Prednisolone] | Cmax [2]: ~705 ng/mL; AUC ([2]; read-out: AUC (Day 1)): ~7070 ng·h/mL
induced depression-like behavior | 6 | 8.73 10 ^ −6 cm/s | 6 | moderate | 7.99 ×10⁻⁶ cm/s | 56.1 ×10⁻⁶ cm/s | 33.4 ×10⁻⁶ cm/s | 25.2 ×10⁻⁶ cm/s | 22.7 ×10⁻⁶ cm/s | 0.755 | 0.746 | C[C@@H]1C[C@H]2[C@@H]3CCC4=CC(=O)C=C[C@]4(C)C3=CC[C@]2(C)[C@@]1(O)C(=O)CO [Vamorolone] | reduction of serum osteocalcin levels ([3]; Phase 2A, subjects with DMD, 6 mg/kg/day, 14 days of dosing): ~ 33%; reduction of osteocalcin levels ([3]; Phase 2b 24-week study in DMD boys, 6 mg/kg): 0.17%; Brain AUC ([4]; 5 mg/kg): 1418 hr∙ng/g of tissue; Brain Cmax ([4]; 5 mg/kg): 443 ng/g of tissue; Brain/plasma ratio based on Cmax ([4]; 5 mg/kg): 0.54; Brain AUC ([4]; 30 mg/kg): 15538 hr∙ng/g of tissue; Brain Cmax ([4]; 30 mg/kg): 4402 ng/g of tissue; Ddrd4 mRNA levels in the CNS (C57BL/6 mice [5]): increased; Fkbp5 mRNA levels in the CNS (C57BL/6 mice [5]): increased; Brain AUC [6, 9]: 8070 h∙ng/g of tissue; Brain Cmax [6, 9]: 1825 ng/g of tissue; Brain/plasma ratio based on AUC [6, 9]: ~0.30; Brain/plasma ratio based on Cmax [6, 9]: ~0.68; fold higher exposure in the mouse (based on Cmax) than human clinical exposure ([6]; 15, 30, and 45 mg/kg in mouse vs 6 mg/kg/day in human): 2–4 fold; Cmax ([6]; mouse (DBA), 30 mg/kg): 2700 ng/mL; Papp B→A at 60 min, 1 μM (human P-gp (MDR1); dog, MDCK-MDR1, pH 7.4): 54.7 ×10⁻⁶ cm/s; Apical to Basolateral MDCK (MDCK cells): 33.4 10 ^ −6 cm/s
– | 59 | 1.07 10 ^ −6 cm/s | 57 | low | 1.04 ×10⁻⁶ cm/s | 62.6 ×10⁻⁶ cm/s | 6.66 ×10⁻⁶ cm/s | 11.6 ×10⁻⁶ cm/s | 6.7 ×10⁻⁶ cm/s | 0.949 | 1.01 | CC(=O)OCC(=O)[C@@]12N=C(C)O[C@@H]1C[C@H]1[C@@H]3CCC4=CC(=O)C=C[C@]4(C)[C@H]3[C@@H](O)C[C@@]12C [Deflazacort] | predicted AUC in mice [8]: 446 ng·h/mL; predicted Cmax in mice [8]: 267.5 ng/mL; grip strength (B10-mdx mice): showed some protection from loss of grip strength; Basolateral to Apical MDR1-MDCK (human P-gp (MDR1); 1 μM): 62.60 10 ^ −6 cm/s; Papp A→B at 60 min, 1 μM [7]: 12.3 ×10⁻⁶ cm/s

— paper PMC10800023 (Human Molecular Genetics, 2023)
